Experimental data from patent US10023592B2, “Bromodomain inhibitors” (Celgene Quanticel Research, Inc., priority 2013, dated 2018).
Read-outs that look alike come from different tables or passages of the source.

Columns and labels:
[1] = tested on: Raji, human Burkitts lymphoma cells; assay: Cell-MTS proliferation assay, Raji; type: cell-based; conditions: Homo sapiens, Raji; Cell-MTS proliferation, 168 hr
In short: (§1)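 Seed: Raji 15,000, HL-60 5,000, NCI-H460 3,000 cells/96-well. +24 hr: 11-pt compound dilution, 100 μM–2.0 nM final. 7 d culture, MTS reagent, read OD490; IC50 vs DMSO, background subtracted.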

[2] = tested on: HL-60, human proleukemia cells; assay: Cell-MTS proliferation assay, HL-60; type: cell-based; conditions: Homo sapiens, HL-60; Cell-MTS proliferation, 168 hr
In short: as §1

[3] = biological target: BRD4(BD1) (Homo sapiens (Human), UniProt O60885); assay: In vitro enzyme inhibition assay (BRD4 AlphaScreen); type: binding
In short: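 His-tagged BRD4 tested by AlphaScreen for binding of biotinylated H4K5/8/12/16-tetraacetyl peptide. After 20 min at room temperature, streptavidin donor and nickel chelate acceptor beads added (5 μg/mL final each). IC50 determined.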

[4] = tested on: NCI-H460, human non-small cell lung cancer cells; assay: Cell-MTS proliferation assay, NCI-H460; type: cell-based; conditions: Homo sapiens, NCI-H460; Cell-MTS proliferation, 168 hr
In short: as §1

[5] = in vitro enzyme inhibition assay

Row | IC50 [1] [nM] | IC50 [2] [nM] | IC50 [3, 5] [nM] | IC50 [4] [nM] | SMILES | IC50 [3] [nM]
1 | 500 to 5000 | 500 to 5000 | < 500 | > 5000 | CCS(=O)(=O)Nc1ncc(Oc2ccc(F)cc2F)c(-c2cn(C)c(=O)c3c2CCCC3)n1 [Example 173, N-[5-(2,4-difluorophenoxy)-4-(2-methyl-1-oxo-5,6,7,8-tetrahydroisoquinolin-4-yl)pyrimidin-2-yl]ethanesulfonamide] | 
2 | < 500 | < 500 | < 500 | > 5000 | CCS(=O)(=O)c1ccc(OCC2CC2)c(-c2cn(C)c(=O)c3ccc(F)cc23)c1 [Example 174, 4-[2-(cyclopropylmethoxy)-5-ethylsulfonylphenyl]-6-fluoro-2-methylisoquinolin-1-one] | 
3 | < 500 | < 500 | < 500 | > 5000 | Cn1cc(-c2cc(S(C)(=O)=O)ccc2OC2CCOC2)c2ccccc2c1=O (centres unmarked) [Example 175, 2-methyl-4-[5-methylsulfonyl-2-(oxolan-3-yloxy)phenyl]isoquinolin-1-one] | 
4 | < 500 | < 500 | < 500 | > 5000 | Cn1cc(-c2cc(S(C)(=O)=O)ccc2OC2CCOCC2)c2ccccc2c1=O [Example 176, 2-methyl-4-[5-methylsulfonyl-2-(oxan-4-yloxy)phenyl]isoquinolin-1-one] | 
5 | 500 to 5000 | < 500 | < 500 | > 5000 | CCOc1ccc(S(C)(=O)=O)cc1-c1cn(C)c(=O)c2ccccc12 [Example 177, 4-(2-ethoxy-5-methylsulfonylphenyl)-2-methylisoquinolin-1-one] | 
6 | < 500 | < 500 | < 500 | > 5000 | CCCOc1ccc(S(C)(=O)=O)cc1-c1cn(C)c(=O)c2ccccc12 [Example 178, 2-methyl-4-(5-methylsulfonyl-2-propoxyphenyl)isoquinolin-1-one] | 
7 | < 500 | < 500 | < 500 | > 5000 | Cn1cc(-c2cc(S(C)(=O)=O)ccc2OC2CCCOC2)c2ccccc2c1=O (centres unmarked) [Example 179, 2-methyl-4-[5-methylsulfonyl-2-(oxan-3-yloxy)phenyl]isoquinolin-1-one] | 
8 | < 500 | < 500 | < 500 | > 5000 | Cn1cc(-c2cc(S(C)(=O)=O)ccc2O[C@H]2CC[C@H](O)CC2)c2ccccc2c1=O [Example 180, 4-[2-(trans-4-hydroxycyclohexyl)oxy-5-methylsulfonylphenyl]-2-methylisoquinolin-1-one] | 
9 | < 500 | < 500 | < 500 | > 5000 | CCS(=O)(=O)c1ccc(O[C@H]2CC[C@H](O)CC2)c(-c2cn(C)c(=O)c3ccccc23)c1 [Example 181, 4-[5-ethylsulfonyl-2-(trans-4-hydroxycyclohexyl)oxyphenyl]-2-methylisoquinolin-1-one] | 
10 | < 500 | < 500 | < 500 | > 5000 | Cn1cc(-c2cc(S(C)(=O)=O)ccc2O[C@H]2CC[C@H](N)CC2)c2ccccc2c1=O [Example 182, 4-[2-(trans-4-aminocyclohexyl)oxy-5-methylsulfonylphenyl]-2-methylisoquinolin-1-one] | 
11 | > 5000 | 500 to 5000 | < 500 | > 5000 | Cn1cc(-c2cc(S(C)(=O)=O)ccc2O[C@H]2CC[C@@H](N)CC2)c2ccccc2c1=O [Example 183, 4-[2-(cis-4-aminocyclohexyl)oxy-5-methylsulfonylphenyl]-2-methylisoquinolin-1-one] | 
12 | 500 to 5000 | < 500 | < 500 | 500 to 5000 | CC#CCOc1ccc(S(C)(=O)=O)cc1-c1cn(C)c(=O)c2ccccc12 [Example 184, 4-(2-but-2-ynoxy-5-methylsulfonylphenyl)-2-methylisoquinolin-1-one] | 
13 | < 500 | < 500 | < 500 | > 5000 | CC#CCOc1ccc(S(=O)(=O)CC)cc1-c1cn(C)c(=O)c2ccccc12 [Example 185, 4-(2-but-2-ynoxy-5-ethylsulfonylphenyl)-2-methylisoquinolin-1-one] | 
14 | < 500 | < 500 | < 500 | > 5000 | Cn1cc(-c2cc(S(C)(=O)=O)ccc2O[C@H]2CC[C@H](O)CC2)c2cc(F)ccc2c1=O [Example 186, 6-fluoro-4-[2-(trans-4-hydroxycyclohexyl)oxy-5-methylsulfonylphenyl]-2-methylisoquinolin-1-one] | 
15 | < 500 | < 500 | < 500 | > 5000 | Cn1cc(-c2cc(S(C)(=O)=O)ccc2O[C@H]2CC[C@H](O)CC2)c2ccc(F)cc2c1=O [Example 187, 7-fluoro-4-[2-(trans-4-hydroxycyclohexyl)oxy-5-methylsulfonylphenyl]-2-methylisoquinolin-1-one] | 
16 | 500 to 5000 | 500 to 5000 | < 500 | > 5000 | Cn1cc(-c2cc(S(C)(=O)=O)ccc2NC2CCOC2)c2ccccc2c1=O (centres unmarked) [Example 190, 2-methyl-4-[5-methylsulfonyl-2-(oxolan-3-ylamino)phenyl]isoquinolin-1-one] | 
17 | < 500 | < 500 | < 500 | > 5000 | Cn1cc(-c2cc(S(C)(=O)=O)ccc2NC2CCOCC2)c2ccccc2c1=O [Example 191, 2-methyl-4-[5-methylsulfonyl-2-(oxan-4-ylamino)phenyl]isoquinolin-1-one] | 
18 | < 500 | < 500 | < 500 | > 5000 | Cn1cc(-c2cc(S(C)(=O)=O)ccc2N[C@H]2CC[C@H](O)CC2)c2ccccc2c1=O [Example 192, 4-[2-[(trans-4-hydroxycyclohexyl)amino]-5-methylsulfonylphenyl]-2-methylisoquinolin-1-one] | 
19 | < 500 | < 500 | < 500 | > 5000 | CCS(=O)(=O)c1ccc(NCC2CC2)c(-c2cn(C)c(=O)c3ccccc23)c1 [Example 193, 4-[2-(cyclopropylmethylamino)-5-ethylsulfonylphenyl]-2-methylisoquinolin-1-one] | 
20 | < 500 | < 500 | < 500 | > 5000 | CCS(=O)(=O)c1ccc(NCC2CC2)c(-c2cn(C)c(=O)c3cc(F)ccc23)c1 [Example 195, 4-[2-(cyclopropylmethylamino)-5-ethylsulfonylphenyl]-7-fluoro-2-methylisoquinolin-1-one] | 
21 | < 500 | < 500 | < 500 | > 5000 | Cn1cc(-c2cc(S(C)(=O)=O)ccc2NCC2CC2)c2ccc(F)cc2c1=O [Example 196, 4-[2-(cyclopropylmethylamino)-5-methylsulfonylphenyl]-7-fluoro-2-methylisoquinolin-1-one] | 
22 | < 500 | < 500 | < 500 | > 5000 | COc1ccc2c(=O)n(C)cc(-c3cc(S(C)(=O)=O)ccc3OCC3CC3)c2c1 [Example 198, 4-(2-(cyclopropylmethoxy)-5-(methylsulfonyl)phenyl)-6-methoxy-2-methylisoquinolin-1(2H)-one] | 
23 | < 500 | < 500 | < 500 | > 5000 | Cn1cc(-c2nc(S(C)(=O)=O)ccc2OCC2CC2)c2ccccc2c1=O [Example 199, 4-[3-(cyclopropylmethoxy)-6-methylsulfonylpyridin-2-yl]-2-methylisoquinolin-1-one] | 
24 | 500 to 5000 | < 500 | < 500 | > 5000 | Cn1cc(-c2cc(S(C)(=O)=O)ncc2OCC2CC2)c2ccccc2c1=O [Example 200, 4-[5-(cyclopropylmethoxy)-2-methylsulfonylpyridin-4-yl]-2-methylisoquinolin-1-one] | 
25 | < 500 | < 500 | < 500 | > 5000 | Cn1cc(-c2nc(S(C)(=O)=O)ccc2OCC2CC2)c2ccc(F)cc2c1=O [Example 201, 4-[3-(cyclopropylmethoxy)-6-methylsulfonylpyridin-2-yl]-7-fluoro-2-methylisoquinolin-1-one] | 
26 | 500 to 5000 | 500 to 5000 | < 500 | > 5000 | CCOc1sc(S(=O)(=O)CC)cc1-c1cn(C)c(=O)c2ccccc12 [Example 204, 4-(2-ethoxy-5-ethylsulfonylthiophen-3-yl)-2-methylisoquinolin-1-one] | 
27 | 500 to 5000 | 500 to 5000 | < 500 | > 5000 | CCS(=O)(=O)c1cc(-c2cn(C)c(=O)c3ccccc23)c(NCC2CC2)s1 [Example 205, 4-[2-(cyclopropylmethylamino)-5-ethylsulfonylthiophen-3-yl]-2-methylisoquinolin-1-one] | 
28 | < 500 | < 500 | < 500 | > 5000 | CCS(=O)(=O)c1ccc(OCC2CC2)c(-c2cn(C)c(=O)c3ccccc23)n1 [Example 206, 4-[3-(cyclopropylmethoxy)-6-ethylsulfonylpyridin-2-yl]-2-methylisoquinolin-1-one] | 

Row | SMILES | IC50 [1] [nM] | IC50 [2] [nM] | IC50 [3, 5] [nM] | IC50 [4] [nM] | IC50 [3] [nM]
29 | Cn1cc(-c2cc(S(C)(=O)=O)ccc2NCC2CC2)c2ccccc2c1=O [Example 194, 4-[2-(cyclopropylmethylamino)-5-methylsulfonylphenyl]-2-methylisoquinolin-1-one] | < 500 | < 500 |  | > 5000 | < 500
